In ChEMBL document CHEMBL1154818, “Molecular modeling study of binding site selectivity of TQMP to G-quadruplex DNA” (Eur J Med Chem, 2010):

What was measured:
Nucleic Acid [1] = experiment: Binding affinity to DNA duplex; assay type: nucleic-acid assay
Nucleic Acid [2] = experiment: Binding affinity to d(TTAGGG) sequence of G-quadruplex DNA; assay type: nucleic-acid assay

| Compound | K (Nucleic Acid [1]) | K (Nucleic Acid [2]) |
| --- | --- | --- |
| C[N+](C)(C)Cc1cc(-c2c3nc(c(-c4ccc(O)c(C[N+](C)(C)C)c4)c4ccc([nH]4)c(-c4ccc(O)c(C[N+](C)(C)C)c4)c4nc(c(-c5ccc(O)c(C[N+](C)(C)C)c5)c5ccc2[nH]5)C=C4)C=C3)ccc1O | 3.18 ×10⁴ /mol | 1.12 ×10⁶ /mol |
| C[n+]1ccc(-c2c3nc(c(-c4cc[n+](C)cc4)c4ccc([nH]4)c(-c4cc[n+](C)cc4)c4ccc([nH]4)c(-c4cc[n+](C)cc4)c4nc2C=C4)C=C3)cc1 | 2.73 ×10⁶ /mol | 1.38 ×10⁷ /mol |
